Eight compounds from patent publication US9340590B2 (priority 2011, dated 2016) can be followed below.

Where two headings read alike, the source gives them in different places.

Assay in all cases: cell-based
The target in one test is hNav1.3 (Homo sapiens, UniProt Q9NY46). As to conditions: IonWorks Quattro, use-dependent protocol, hNav1.3; read-out: IWQ Use Nav1.3.
A further test has as its target hNav1.7 (Homo sapiens, UniProt Q15858). Format: cell-based.
A further test has as its target hNav1.5 (Homo sapiens, UniProt Q14524).
[1] abbreviates: IonWorks Quattro, use-dependent protocol, hNav1.7, read-out: IWQ Use Nav1.7.
Where [2] appears, read: IonWorks Quattro, use-dependent protocol, hNav1.5, read-out: IWQ Use Nav1.5.

hNav1.3, sequence (Q9NY46 whole entry, looked up): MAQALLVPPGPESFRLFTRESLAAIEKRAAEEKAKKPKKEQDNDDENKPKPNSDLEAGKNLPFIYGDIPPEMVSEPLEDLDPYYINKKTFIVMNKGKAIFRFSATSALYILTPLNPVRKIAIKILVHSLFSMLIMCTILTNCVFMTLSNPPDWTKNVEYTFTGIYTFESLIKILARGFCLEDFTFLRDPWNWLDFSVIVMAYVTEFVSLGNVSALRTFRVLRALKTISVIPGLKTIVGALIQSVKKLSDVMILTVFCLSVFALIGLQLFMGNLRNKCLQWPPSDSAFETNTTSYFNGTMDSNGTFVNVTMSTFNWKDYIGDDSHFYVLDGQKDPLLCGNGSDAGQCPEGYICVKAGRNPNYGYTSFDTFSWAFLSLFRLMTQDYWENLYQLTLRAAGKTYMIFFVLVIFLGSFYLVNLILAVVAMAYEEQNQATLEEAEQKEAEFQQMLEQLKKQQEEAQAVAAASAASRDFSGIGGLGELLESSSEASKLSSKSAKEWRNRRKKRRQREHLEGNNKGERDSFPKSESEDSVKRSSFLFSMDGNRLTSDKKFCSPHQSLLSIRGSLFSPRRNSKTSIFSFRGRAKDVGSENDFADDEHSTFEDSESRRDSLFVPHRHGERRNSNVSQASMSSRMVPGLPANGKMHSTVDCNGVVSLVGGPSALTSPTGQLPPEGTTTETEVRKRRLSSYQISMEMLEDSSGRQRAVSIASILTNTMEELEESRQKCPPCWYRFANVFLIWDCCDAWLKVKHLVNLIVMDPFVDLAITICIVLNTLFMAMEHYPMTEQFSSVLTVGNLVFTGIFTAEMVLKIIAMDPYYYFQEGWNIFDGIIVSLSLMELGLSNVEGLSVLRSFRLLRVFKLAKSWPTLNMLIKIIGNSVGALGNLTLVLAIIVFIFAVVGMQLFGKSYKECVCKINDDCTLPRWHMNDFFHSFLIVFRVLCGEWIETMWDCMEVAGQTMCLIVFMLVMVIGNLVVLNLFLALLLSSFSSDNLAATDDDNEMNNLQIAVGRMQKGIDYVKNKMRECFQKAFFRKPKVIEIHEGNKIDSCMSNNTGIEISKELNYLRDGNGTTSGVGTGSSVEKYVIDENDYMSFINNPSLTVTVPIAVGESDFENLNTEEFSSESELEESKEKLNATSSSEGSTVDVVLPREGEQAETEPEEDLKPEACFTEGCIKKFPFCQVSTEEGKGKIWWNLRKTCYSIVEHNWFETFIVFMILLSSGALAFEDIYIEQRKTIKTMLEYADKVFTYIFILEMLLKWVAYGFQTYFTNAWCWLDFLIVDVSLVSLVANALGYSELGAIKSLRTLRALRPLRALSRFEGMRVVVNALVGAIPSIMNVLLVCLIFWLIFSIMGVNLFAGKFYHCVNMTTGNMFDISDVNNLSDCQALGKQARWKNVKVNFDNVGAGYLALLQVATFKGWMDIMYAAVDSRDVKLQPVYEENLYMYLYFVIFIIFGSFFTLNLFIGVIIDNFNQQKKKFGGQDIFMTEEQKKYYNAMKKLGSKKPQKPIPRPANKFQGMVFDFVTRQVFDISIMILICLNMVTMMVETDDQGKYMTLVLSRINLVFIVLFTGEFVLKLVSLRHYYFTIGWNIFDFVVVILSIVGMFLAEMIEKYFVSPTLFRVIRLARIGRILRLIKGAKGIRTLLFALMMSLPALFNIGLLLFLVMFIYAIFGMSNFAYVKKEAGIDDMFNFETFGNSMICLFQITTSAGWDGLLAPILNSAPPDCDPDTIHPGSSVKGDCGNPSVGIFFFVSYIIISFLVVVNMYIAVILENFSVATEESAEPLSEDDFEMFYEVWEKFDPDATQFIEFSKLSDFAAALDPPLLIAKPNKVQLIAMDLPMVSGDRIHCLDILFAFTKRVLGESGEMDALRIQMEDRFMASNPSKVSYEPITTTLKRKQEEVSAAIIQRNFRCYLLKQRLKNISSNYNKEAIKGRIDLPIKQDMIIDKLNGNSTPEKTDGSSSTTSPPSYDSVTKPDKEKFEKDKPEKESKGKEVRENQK
hNav1.7, sequence (Q15858 whole entry, looked up): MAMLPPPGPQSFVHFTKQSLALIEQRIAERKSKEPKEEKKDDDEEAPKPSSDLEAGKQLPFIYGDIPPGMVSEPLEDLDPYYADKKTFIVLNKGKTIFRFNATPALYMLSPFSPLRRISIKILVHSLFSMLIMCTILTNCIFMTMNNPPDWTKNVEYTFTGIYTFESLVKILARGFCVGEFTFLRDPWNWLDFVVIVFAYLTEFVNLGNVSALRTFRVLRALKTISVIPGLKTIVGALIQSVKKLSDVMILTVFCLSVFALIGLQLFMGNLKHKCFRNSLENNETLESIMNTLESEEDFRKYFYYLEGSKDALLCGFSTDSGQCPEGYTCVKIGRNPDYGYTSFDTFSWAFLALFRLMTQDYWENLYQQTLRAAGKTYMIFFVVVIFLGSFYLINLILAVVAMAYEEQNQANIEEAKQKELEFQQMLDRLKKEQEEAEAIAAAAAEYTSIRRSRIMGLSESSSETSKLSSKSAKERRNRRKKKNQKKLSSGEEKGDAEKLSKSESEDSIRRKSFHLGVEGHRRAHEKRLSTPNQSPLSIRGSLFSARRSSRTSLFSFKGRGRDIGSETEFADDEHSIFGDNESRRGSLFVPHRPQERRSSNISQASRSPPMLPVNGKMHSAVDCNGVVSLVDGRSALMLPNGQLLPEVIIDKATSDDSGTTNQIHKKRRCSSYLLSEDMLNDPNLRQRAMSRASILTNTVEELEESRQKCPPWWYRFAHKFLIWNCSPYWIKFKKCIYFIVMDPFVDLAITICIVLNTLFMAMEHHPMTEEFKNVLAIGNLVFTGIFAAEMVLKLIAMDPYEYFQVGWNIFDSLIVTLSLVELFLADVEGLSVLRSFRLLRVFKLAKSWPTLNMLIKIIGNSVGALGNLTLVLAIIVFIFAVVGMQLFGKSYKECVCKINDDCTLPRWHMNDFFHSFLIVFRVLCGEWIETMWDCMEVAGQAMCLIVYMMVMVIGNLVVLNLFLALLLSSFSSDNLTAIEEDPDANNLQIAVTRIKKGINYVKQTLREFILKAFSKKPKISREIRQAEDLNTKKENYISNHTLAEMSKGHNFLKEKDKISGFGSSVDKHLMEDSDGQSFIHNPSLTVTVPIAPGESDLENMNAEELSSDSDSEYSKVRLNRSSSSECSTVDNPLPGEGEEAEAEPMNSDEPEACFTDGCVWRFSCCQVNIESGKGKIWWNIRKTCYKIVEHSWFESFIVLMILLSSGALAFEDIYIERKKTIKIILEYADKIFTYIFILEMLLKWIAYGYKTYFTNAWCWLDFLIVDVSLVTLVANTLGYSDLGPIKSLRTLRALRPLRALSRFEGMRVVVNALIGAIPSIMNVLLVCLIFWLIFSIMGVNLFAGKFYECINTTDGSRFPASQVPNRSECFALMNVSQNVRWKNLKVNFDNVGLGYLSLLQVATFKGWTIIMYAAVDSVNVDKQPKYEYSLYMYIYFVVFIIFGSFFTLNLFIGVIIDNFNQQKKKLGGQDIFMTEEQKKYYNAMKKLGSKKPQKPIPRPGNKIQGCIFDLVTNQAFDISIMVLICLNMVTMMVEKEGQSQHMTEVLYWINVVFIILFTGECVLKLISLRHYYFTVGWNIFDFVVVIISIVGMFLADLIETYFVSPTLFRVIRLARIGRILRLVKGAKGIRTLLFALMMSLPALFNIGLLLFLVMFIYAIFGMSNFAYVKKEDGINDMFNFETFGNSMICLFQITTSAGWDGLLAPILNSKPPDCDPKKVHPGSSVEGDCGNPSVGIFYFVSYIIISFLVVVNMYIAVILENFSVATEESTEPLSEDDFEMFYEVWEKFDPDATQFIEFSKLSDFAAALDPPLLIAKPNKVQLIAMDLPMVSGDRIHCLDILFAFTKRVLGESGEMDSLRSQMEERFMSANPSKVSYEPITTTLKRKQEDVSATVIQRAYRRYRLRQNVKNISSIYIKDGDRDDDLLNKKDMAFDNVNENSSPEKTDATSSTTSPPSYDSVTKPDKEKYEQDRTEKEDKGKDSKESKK

For the compound `CC[C@H](C)[C@@H]1NC(=O)[C@@H]2CSSC[C@@H]3NC(=O)[C@H](C(C)C)NC(=O)[C@H](CC(C)C)NC(=O)[C@H](CC(N)=O)NC(=O)[C@@H]4CCCN4C(=O)[C@H](CCCNC(=N)N)NC(=O)[C@H](CSSC[C@H](NC(=O)[C@@H](N)CC(=O)O)C(=O)N[C@@H](CC(C)C)C(=O)NCC(=O)N[C@@H](Cc4ccc(OC)c(OC)c4)C(=O)N[C@@H](CC(C)C)C(=O)N[C@@H](CCCNC(=N)N)C(=O)N[C@@H](CCCCN)C(=O)N2)NC(=O)[C@H](CSSC[C@@H](C(=O)N[C@@H](CCCCN)C(=O)N[C@@H](Cc2ccc(O)cc2)C(=O)N[C@H](C(=O)N[C@@H](Cc2ccccc2)C(N)=O)C(C)C)NC(=O)[C@H](Cc2c[nH]c4ccccc24)NC(=O)[C@H](CCCCN)NC(=O)[C@H](Cc2c[nH]cn2)NC(=O)[C@H]([C@@H](C)O)NC(=O)[C@H](CCCNC(=N)N)NC(=O)[C@H](CO)NC3=O)NC(=O)[C@H](CCCCN)NC(=O)[C@H](CC(=O)O)NC(=O)[C@H](CC(N)=O)NC(=O)[C@H](CC(=O)O)NC(=O)[C@@H]2CCCN2C1=O` [compound 645], the IC50 is 2600 nM at hNav1.3, 2400 nM at hNav1.7 (setting [1]) and greater than 5000 nM on hNav1.5 (setting [2]).
For the compound `CC[C@H](C)[C@@H]1NC(=O)[C@@H]2CSSC[C@@H]3NC(=O)[C@H](C(C)C)NC(=O)[C@H](CC(C)C)NC(=O)[C@H](CC(N)=O)NC(=O)[C@@H]4CCCN4C(=O)[C@H](CCCNC(=N)N)NC(=O)[C@H](CSSC[C@H](NC(=O)[C@@H](N)CC(=O)O)C(=O)N[C@@H](CC(C)C)C(=O)NCC(=O)N(C)CC(=O)N[C@@H](CC(C)C)C(=O)N[C@@H](CCCNC(=N)N)C(=O)N[C@@H](CCCCN)C(=O)N2)NC(=O)[C@H](CSSC[C@@H](C(=O)N[C@@H](CCCCN)C(=O)N[C@@H](Cc2ccc(O)cc2)C(=O)N[C@H](C(=O)N[C@@H](Cc2ccccc2)C(N)=O)C(C)C)NC(=O)[C@H](Cc2c[nH]c4ccccc24)NC(=O)[C@H](CCCCN)NC(=O)[C@H](Cc2c[nH]cn2)NC(=O)[C@H]([C@@H](C)O)NC(=O)[C@H](CCCNC(=N)N)NC(=O)[C@H](CO)NC3=O)NC(=O)[C@H](CCCCN)NC(=O)[C@H](CC(=O)O)NC(=O)[C@H](CC(N)=O)NC(=O)[C@H](CC(=O)O)NC(=O)[C@@H]2CCCN2C1=O` [compound 646], the figures for the IC50 at hNav1.3, on hNav1.7 (setting [1]) and on hNav1.5 (setting [2]) were 1700 nM, 920 nM and greater than 5000 nM, respectively.
For the compound `CC[C@H](C)[C@@H]1NC(=O)[C@@H]2CSSC[C@@H]3NC(=O)[C@H](C(C)C)NC(=O)[C@H](CC(C)C)NC(=O)[C@H](CC(N)=O)NC(=O)[C@@H]4CCCN4C(=O)[C@H](CCCNC(=N)N)NC(=O)[C@H](CSSC[C@H](NC(=O)[C@@H](N)CC(=O)O)C(=O)N[C@@H](CC(C)C)C(=O)NCC(=O)N[C@H](C)C(=O)N[C@@H](CCSC)C(=O)N[C@@H](CCCNC(=N)N)C(=O)N[C@@H](CCCCN)C(=O)N2)NC(=O)[C@H](CSSC[C@@H](C(=O)N[C@@H](CCCCN)C(=O)N[C@@H](Cc2ccc(O)cc2)C(=O)N[C@H](C(=O)N[C@@H](Cc2ccccc2)C(N)=O)C(C)C)NC(=O)[C@H](Cc2c[nH]c4ccccc24)NC(=O)[C@H](CCCCN)NC(=O)[C@H](Cc2c[nH]cn2)NC(=O)[C@H]([C@@H](C)O)NC(=O)[C@H](CCCNC(=N)N)NC(=O)[C@H](CO)NC3=O)NC(=O)[C@H](CCCCN)NC(=O)[C@H](CC(=O)O)NC(=O)[C@H](CC(N)=O)NC(=O)[C@H](CC(=O)O)NC(=O)[C@@H]2CCCN2C1=O` [compound 647], the results for the IC50 at hNav1.3, at hNav1.7 and on hNav1.5 (setting [2]) were greater than 5000 nM, 4500 nM and greater than 5000 nM, respectively.
For `CC[C@H](C)[C@@H]1NC(=O)[C@@H]2CSSC[C@@H]3NC(=O)[C@H](C(C)C)NC(=O)[C@H](CC(C)C)NC(=O)[C@H](CC(N)=O)NC(=O)[C@@H]4CCCN4C(=O)[C@H](CCCNC(=N)N)NC(=O)[C@H](CSSC[C@H](NC(=O)[C@@H](N)CC(=O)O)C(=O)N[C@@H](CC(C)C)C(=O)NCC(=O)NCCC(=O)N[C@@H](CCSC)C(=O)N[C@@H](CCCNC(=N)N)C(=O)N[C@@H](CCCCN)C(=O)N2)NC(=O)[C@H](CSSC[C@@H](C(=O)N[C@@H](CCCCN)C(=O)N[C@@H](Cc2ccc(O)cc2)C(=O)N[C@H](C(=O)N[C@@H](Cc2ccccc2)C(N)=O)C(C)C)NC(=O)[C@H](Cc2c[nH]c4ccccc24)NC(=O)[C@H](CCCCN)NC(=O)[C@H](Cc2c[nH]cn2)NC(=O)[C@H]([C@@H](C)O)NC(=O)[C@H](CCCNC(=N)N)NC(=O)[C@H](CO)NC3=O)NC(=O)[C@H](CCCCN)NC(=O)[C@H](CC(=O)O)NC(=O)[C@H](CC(N)=O)NC(=O)[C@H](CC(=O)O)NC(=O)[C@@H]2CCCN2C1=O` [compound 648], the values for the IC50 on hNav1.3, at hNav1.7 (setting [1]) and on hNav1.5 (setting [2]) were greater than 5000 nM, 4700 nM and greater than 5000 nM, respectively.
Turning to `CC[C@@H]1NC(=O)CNC(=O)[C@H](CC(C)C)NC(=O)[C@@H](NC(=O)[C@@H](N)CC(=O)O)CSSC[C@@H]2NC(=O)[C@@H]3CSSC[C@@H](C(=O)N[C@@H](CCCCN)C(=O)N[C@@H](Cc4ccc(O)cc4)C(=O)N[C@H](C(=O)N[C@@H](Cc4ccccc4)C(N)=O)C(C)C)NC(=O)[C@H](Cc4c[nH]c5ccccc45)NC(=O)[C@H](CCCCN)NC(=O)[C@H](Cc4cnc[nH]4)NC(=O)[C@H]([C@@H](C)O)NC(=O)[C@H](CCCNC(=N)N)NC(=O)[C@H](CO)NC(=O)[C@H](CSSC[C@H](NC(=O)[C@H](CCCCN)NC(=O)[C@H](CCCNC(=N)N)NC(=O)[C@H](CCSC)NC1=O)C(=O)N[C@@H]([C@@H](C)CC)C(=O)N1CCC[C@H]1C(=O)N[C@@H](CC(=O)O)C(=O)N[C@@H](CC(N)=O)C(=O)N[C@@H](CC(=O)O)C(=O)N[C@@H](CCCCN)C(=O)N3)NC(=O)[C@H](C(C)C)NC(=O)[C@H](CC(C)C)NC(=O)[C@H](CC(N)=O)NC(=O)[C@@H]1CCCN1C(=O)[C@H](CCCNC(=N)N)NC2=O` [compound 649], the IC50 was 1300 nM on hNav1.3, 690 nM on hNav1.7 (setting [1]) and greater than 5000 nM at hNav1.5 (setting [2]).
Consider `CCC[C@@H]1NC(=O)CNC(=O)[C@H](CC(C)C)NC(=O)[C@@H](NC(=O)[C@@H](N)CC(=O)O)CSSC[C@@H]2NC(=O)[C@@H]3CSSC[C@@H](C(=O)N[C@@H](CCCCN)C(=O)N[C@@H](Cc4ccc(O)cc4)C(=O)N[C@H](C(=O)N[C@@H](Cc4ccccc4)C(N)=O)C(C)C)NC(=O)[C@H](Cc4c[nH]c5ccccc45)NC(=O)[C@H](CCCCN)NC(=O)[C@H](Cc4cnc[nH]4)NC(=O)[C@H]([C@@H](C)O)NC(=O)[C@H](CCCNC(=N)N)NC(=O)[C@H](CO)NC(=O)[C@H](CSSC[C@H](NC(=O)[C@H](CCCCN)NC(=O)[C@H](CCCNC(=N)N)NC(=O)[C@H](CCSC)NC1=O)C(=O)N[C@@H]([C@@H](C)CC)C(=O)N1CCC[C@H]1C(=O)N[C@@H](CC(=O)O)C(=O)N[C@@H](CC(N)=O)C(=O)N[C@@H](CC(=O)O)C(=O)N[C@@H](CCCCN)C(=O)N3)NC(=O)[C@H](C(C)C)NC(=O)[C@H](CC(C)C)NC(=O)[C@H](CC(N)=O)NC(=O)[C@@H]1CCCN1C(=O)[C@H](CCCNC(=N)N)NC2=O` [compound 650], for which the results for the IC50 on hNav1.3, against hNav1.7 and on hNav1.5 (setting [2]) were 570 nM, 200 nM and greater than 5000 nM, respectively.
With `CCCC[C@@H]1NC(=O)CNC(=O)[C@H](CC(C)C)NC(=O)[C@@H](NC(=O)[C@@H](N)CC(=O)O)CSSC[C@@H]2NC(=O)[C@@H]3CSSC[C@@H](C(=O)N[C@@H](CCCCN)C(=O)N[C@@H](Cc4ccc(O)cc4)C(=O)N[C@H](C(=O)N[C@@H](Cc4ccccc4)C(N)=O)C(C)C)NC(=O)[C@H](Cc4c[nH]c5ccccc45)NC(=O)[C@H](CCCCN)NC(=O)[C@H](Cc4c[nH]cn4)NC(=O)[C@H]([C@@H](C)O)NC(=O)[C@H](CCCNC(=N)N)NC(=O)[C@H](CO)NC(=O)[C@H](CSSC[C@H](NC(=O)[C@H](CCCCN)NC(=O)[C@H](CCCNC(=N)N)NC(=O)[C@H](CCSC)NC1=O)C(=O)N[C@@H]([C@@H](C)CC)C(=O)N1CCC[C@H]1C(=O)N[C@@H](CC(=O)O)C(=O)N[C@@H](CC(N)=O)C(=O)N[C@@H](CC(=O)O)C(=O)N[C@@H](CCCCN)C(=O)N3)NC(=O)[C@H](C(C)C)NC(=O)[C@H](CC(C)C)NC(=O)[C@H](CC(N)=O)NC(=O)[C@@H]1CCCN1C(=O)[C@H](CCCNC(=N)N)NC2=O` [compound 651], the IC50 is 170 nM at hNav1.3, 77 nM at hNav1.7 (setting [1]) and greater than 5000 nM on hNav1.5 (IWQ Use Nav1.5).
For `CC[C@H](C)[C@@H]1NC(=O)[C@@H]2CSSC[C@@H]3NC(=O)[C@H](C(C)C)NC(=O)[C@H](CC(C)C)NC(=O)[C@H](CC(N)=O)NC(=O)[C@@H]4CCCN4C(=O)[C@H](CCCNC(=N)N)NC(=O)[C@H](CSSC[C@H](NC(=O)[C@@H](N)CC(=O)O)C(=O)N[C@@H](CC(C)C)C(=O)NCC(=O)N(C)[C@@H](Cc4ccccc4)C(=O)N[C@@H](CCSC)C(=O)N[C@@H](CCCNC(=N)N)C(=O)N[C@@H](CCCCN)C(=O)N2)NC(=O)[C@H](CSSC[C@@H](C(=O)N[C@@H](CCCCN)C(=O)N[C@@H](Cc2ccc(O)cc2)C(=O)N[C@H](C(=O)N[C@@H](Cc2ccccc2)C(N)=O)C(C)C)NC(=O)[C@H](Cc2c[nH]c4ccccc24)NC(=O)[C@H](CCCCN)NC(=O)[C@H](Cc2c[nH]cn2)NC(=O)[C@H]([C@@H](C)O)NC(=O)[C@H](CCCNC(=N)N)NC(=O)[C@H](CO)NC3=O)NC(=O)[C@H](CCCCN)NC(=O)[C@H](CC(=O)O)NC(=O)[C@H](CC(N)=O)NC(=O)[C@H](CC(=O)O)NC(=O)[C@@H]2CCCN2C1=O` [compound 657], in that order: 280 nM, 360 nM and greater than 5000 nM.
